Broadly, the IC50 is the concentration that inhibits the measured activity by half. A low value points to inhibition by little substance.

Each structure is given as a SMILES string.

The target in the first test is T1, human IBAT (Homo sapiens, UniProt Q12908).
T1 sequence (Q12908 1-348): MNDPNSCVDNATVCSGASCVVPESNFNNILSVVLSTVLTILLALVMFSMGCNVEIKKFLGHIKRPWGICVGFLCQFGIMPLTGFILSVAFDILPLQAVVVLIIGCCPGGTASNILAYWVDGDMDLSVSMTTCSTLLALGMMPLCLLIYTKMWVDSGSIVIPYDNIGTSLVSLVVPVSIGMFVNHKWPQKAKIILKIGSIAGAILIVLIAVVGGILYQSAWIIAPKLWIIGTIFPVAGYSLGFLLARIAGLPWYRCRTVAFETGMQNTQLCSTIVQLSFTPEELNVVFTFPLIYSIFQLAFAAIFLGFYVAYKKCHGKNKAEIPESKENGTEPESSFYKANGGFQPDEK
In words: In vitro assay using Cos 7 cells, transiently expressed human IBAT. The format is cell-based. As to conditions: [3H]-taurocholate 8 μM uptake, 37° C., 60 minutes. As for the experimental part: In the present Test Example, an in vitro assay of compounds using Cos 7 cells as to inhibitory activity on transiently expressed human IBAT or rat IBAT transporter was performed according to the method described in Am. J. Physiol., 274, G157-169.
That is, […] cells/well of Cos 7 cells were seeded in a 24-well plate, and after one day, the cells were transfected with 0.3 μg/well of cDNA of human IBAT or rat IBAT using FuGENE6 (supplied from Roche). After culturing for one day after the transfection, the cells were washed once with the assay buffer, i.e., Hanks buffer containing 25 mM glucose and 10 mM HEPES (pH 7.4). The assay buffer was then replaced with the assay buffer containing the test compound. [^3H]-Taurocholate at a final concentration of 8 μM was added thereto and incubated at 37° C. for 60 minutes so that [^3H]-taurocholate was taken into Cos 7 cells by the action of human IBAT or rat IBAT. The cells were washed twice with the assay buffer containing 1 mM taurocholate, and subsequently lysed with 0.2 M NaOH to stop the reaction. The cell lysate was added to 4 mL of liquid scintillation cocktail, which was then thoroughly vortexed. Then the radioactivity was measured using the liquid scintillation counter.
In turn, `CCCCC1(CCCC)CS(=O)(=O)c2ccc(N(C)C)cc2C(c2cccc(NC(=S)Nc3ccc(C[N+]45CCC(CC4)CC5)cc3C)c2)N1` (stereo not drawn) [EXAMPLE P317] came in with an IC50 of 49 nM. This lies in the double-digit nanomolar range. Same read-out and setting: the value for `CCCCC1(CCCC)CS(=O)(=O)c2ccc(N(C)C)cc2C(c2cccc(NC(=S)Nc3ccc(C[n+]4ccc(C5CCOCC5)cc4)cc3)c2)N1` (stereo not drawn) [EXAMPLE 5419] was 39 nM; that for `CCCCC1(CCCC)CS(=O)(=O)c2ccc(N(C)C)cc2C(c2cccc(NC(=S)Nc3ccc(C[N+](C)(C)CCOC(=O)c4ccccc4)cc3)c2)N1` (stereo not drawn) [EXAMPLE 3558] was 70 nM; that for `CCCCC1(CCCC)CS(=O)(=O)c2ccc(N(C)C)cc2C(c2cccc(NC(=S)Nc3ccc(C[n+]4ccc(CCCO)cc4)cc3)c2)N1` (stereo not drawn) [EXAMPLE 3733] was 57 nM. The same measure, in the same setting: the value for `CCCCC1(CCCC)CS(=O)(=O)c2ccc(N(C)C)cc2C(c2cccc(NC(=S)Nc3ccc(C[N+]45CCC(CC4)CC5)c(Br)c3)c2)N1` (stereo not drawn) [EXAMPLE P323] was 32 nM; that for `CCCCC1(CCCC)CS(=O)(=O)c2ccc(N(C)C)cc2C(c2cccc(NC(=S)Nc3ccc(C[n+]4ccccc4C)cc3)c2)N1` (stereo not drawn) [EXAMPLE 5407] was 52 nM. `CCCCC1(CCCC)CS(=O)(=O)c2ccc(N(C)C)cc2C(c2cccc(NC(=S)Nc3c(C)cc(C[n+]4ccc(C(C)(C)C)cc4)cc3C)c2)N1` (stereo not drawn) [EXAMPLE P374] showed an IC50 of 33 nM. In turn, `CCCCC1(CCCC)CS(=O)(=O)c2ccc(N(C)C)cc2C(c2cccc(NC(=S)Nc3ccc(C[n+]4ccc(C(C)O)cc4)cc3)c2)N1` (racemic) [EXAMPLE 5411] gave an IC50 of 97 nM. On the same count and under the same terms, the result for `CCCCC1(CCCC)CS(=O)(=O)c2ccc(N(C)C)cc2C(c2cccc(NC(=S)Nc3ccc(C[n+]4ccc(C(C)(C)C)cc4)c(Cl)c3)c2)N1` (stereo not drawn) [EXAMPLE P369] reads 34 nM. Still for that read-out and setting: the result for `CCCCC1(CCCC)CS(=O)(=O)c2ccc(N(C)C)cc2C(c2cccc(NC(=S)Nc3ccc(C[N+](C)(C)Cc4ccccc4)c(Br)c3)c2)N1` (stereo not drawn) [EXAMPLE P335] reads 68 nM; that for `CCCCC1(CCCC)CS(=O)(=O)c2ccc(N(C)C)cc2C(c2cccc(NC(=S)Nc3ccc(C[n+]4ccccc4)cc3)c2)N1` (racemic) [EXAMPLE 3708], 70 nM.

With `CCCCC1(CCCC)CS(=O)(=O)c2ccc(N(C)C)cc2C(c2cccc(NC(=S)Nc3ccc(C[n+]4ccc(C(C)(C)C)cc4)cc3C)c2)N1` (stereo not drawn) [EXAMPLE P364], the IC50 was determined as 48 nM. The same measure, in the same setting: the value for `CCCCC1(CCCC)CS(=O)(=O)c2ccc(N(C)C)cc2C(c2cccc(NC(=S)Nc3ccc(C[n+]4cc(O)cc(Cl)c4)cc3)c2)N1` (racemic) [EXAMPLE 5417] was 26 nM. As to `CCCCC1(CCCC)CS(=O)(=O)c2ccc(N(C)C)cc2C(c2cccc(NC(=S)NCCC[N+]3(Cc4ccccc4)CCCC(CO)C3)c2)N1` (stereo not drawn) [EXAMPLE 592], inhibition was half-maximal at 100 nM (IC50). For the compound `CCCCC1(CCCC)CS(=O)(=O)c2ccc(N(C)C)cc2C(c2cccc(NC(=S)Nc3ccc(C[n+]4ccc(C(C)(C)C)cc4)c(Br)c3)c2)N1` (stereo not drawn) [EXAMPLE P371], 28 nM corresponded to half-maximal inhibition (IC50). Compared with the last compound, the IC50 is about 3.6-fold lower. `CCCCC1(CCCC)CS(=O)(=O)c2ccc(N(C)C)cc2C(c2cccc(NC(=S)Nc3ccc(C[N+]4(C)CCC(O)CC4)cc3)c2)N1` (stereo not drawn) [EXAMPLE 3599] yielded an IC50 of 54 nM. Same read-out and setting: the value for `CCCCCCCCCC[N+](C)(C)Cc1ccc(NC(=S)Nc2cccc(C3NC(CCCC)(CCCC)CS(=O)(=O)c4ccc(N(C)C)cc43)c2)cc1` (stereo not drawn) [EXAMPLE 3414] was 88 nM. The same measure, in the same setting: the result for `CCCCC1(CCCC)CS(=O)(=O)c2ccc(N(C)C)cc2C(c2cccc(NC(=S)Nc3ccc(C[n+]4ccc(NC=O)cc4)cc3)c2)N1` (racemic) [EXAMPLE 3754] reads 92 nM.

As to `CCCCC1(CCCC)CS(=O)(=O)c2ccc(N(C)C)cc2C(c2cccc(NC(=S)Nc3ccc(C[N+](C)(C)Cc4ccccc4)c(Cl)c3)c2)N1` (stereo not drawn) [EXAMPLE P333], the IC50 worked out at 44 nM. This IC50 is about 2.1-fold lower than that of the compound before. On the same count and under the same terms, the value for `CCCCC1(CCCC)CS(=O)(=O)c2ccc(N(C)C)cc2C(c2cccc(NC(=S)Nc3ccc(C[n+]4ccc(CCC)cc4)cc3)c2)N1` (stereo not drawn) [EXAMPLE 3711] was 63 nM; that for `CCCCC1(CCCC)CS(=O)(=O)c2ccc(N(C)C)cc2C(c2cccc(NC(=S)Nc3ccc(C[n+]4ccc(-c5ccccc5)cc4)c([N+](=O)[O-])c3)c2)N1` (stereo not drawn) [EXAMPLE P385] was 56 nM. On the same count and under the same terms, the value for `CCCCCCOC(=O)c1ccc[n+](Cc2ccc(NC(=S)Nc3cccc(C4NC(CCCC)(CCCC)CS(=O)(=O)c5ccc(N(C)C)cc54)c3)cc2)c1` (stereo not drawn) [EXAMPLE 3750] was 75 nM.

In turn, `CCCCC1(CCCC)CS(=O)(=O)c2ccc(N(C)C)cc2C(c2cccc(NC(=S)Nc3ccc(C[n+]4ccc(C(c5ccccc5)c5ccccc5)cc4)cc3)c2)N1` (stereo not drawn) [EXAMPLE 5410] came in with an IC50 of 100 nM.

Regarding `CCCCC1(CCCC)CS(=O)(=O)c2ccc(N(C)C)cc2C(c2cccc(NC(=S)Nc3ccc(C[N+]45CCC(c6ccccc6)(CC4)CC5)c([N+](=O)[O-])c3)c2)N1` (stereo not drawn) [EXAMPLE P349], it took 41 nM to reach half-maximal inhibition (IC50). The same measure, in the same setting: the value for `CCCCC1(CCCC)CS(=O)(=O)c2ccc(N(C)C)cc2C(c2cccc(NC(=S)Nc3ccc(C[N+]45CCC(c6ccccc6)(CC4)CC5)cc3F)c2)N1` (stereo not drawn) [Example P316, 1-(4-{3-[3-(3,3-dibutyl-7-dimethylamino-1,1-dioxo-2,3,4,5-tetrahydro-1,4-benzothiazepine-5-yl)phenyl]thioureido}-3-fluorobenzyl)-4-phenyl-1-azoniabicyclo[2.2.2]octane bromide] was 28 nM; that for `CCCCC1(CCCC)CS(=O)(=O)c2ccc(N(C)C)cc2C(c2cccc(NC(=S)Nc3ccc(C[n+]4cccc(C(=O)c5ccccc5)c4)cc3)c2)N1` (racemic) [EXAMPLE 3748] was 81 nM. With `CCCCC1(CCCC)CS(=O)(=O)c2ccc(N(C)C)cc2C(c2cccc(NC(=S)Nc3ccc(C[n+]4cc(C)cc(-c5ccccc5)c4)cc3)c2)N1` (racemic) [EXAMPLE 3730], the IC50 amounted to 84 nM. This IC50 and that of the compound before are within 1.5-fold of each other. On the same count and under the same terms, the result for `CCCCC1(CCCC)CS(=O)(=O)c2ccc(N(C)C)cc2C(c2cccc(NC(=S)Nc3ccc(C[N+]45CCC(CC4)CC5)c(F)c3)c2)N1` (stereo not drawn) [EXAMPLE P319] reads 42 nM. Compound `CCCCC1(CCCC)CS(=O)(=O)c2ccc(N(C)C)cc2C(c2cccc(NC(=S)Nc3ccc(C[n+]4ccc(C(C)=O)cc4)cc3)c2)N1` (stereo not drawn) [EXAMPLE 3736] displayed an IC50 of 50 nM. Still for that read-out and setting: the result for `CCCCC1(CCCC)CS(=O)(=O)c2ccc(N(C)C)cc2C(c2cccc(NC(=S)Nc3ccc(C[N+](C)(C)CCN(C)C)cc3)c2)N1` (racemic) [EXAMPLE 3506] reads 127 nM; that for `CCCCC1(CCCC)CS(=O)(=O)c2ccc(N(C)C)cc2C(c2cccc(NC(=S)Nc3ccc(C[n+]4ccc(-c5ccccc5)cc4)cc3)c2)N1` (stereo not drawn) [EXAMPLE 3717], 30 nM. As for `CCCCC1(CCCC)CS(=O)(=O)c2ccc(N(C)C)cc2C(c2cccc(NC(=S)Nc3ccc(C[n+]4ccc(C(C)(C)C)cc4)c(F)c3)c2)N1` (stereo not drawn) [EXAMPLE P367], the IC50 amounted to 23 nM. The same measure, in the same setting: the value for `CCCCC1(CCCC)CS(=O)(=O)c2ccc(N(C)C)cc2C(c2cccc(NC(=S)Nc3ccc(C[n+]4ccc(C)c(C)c4)cc3)c2)N1` (stereo not drawn) [EXAMPLE 3727] was 66 nM; that for `CCCCC1(CCCC)CS(=O)(=O)c2ccc(N(C)C)cc2C(c2cccc(NC(=S)Nc3ccc(C[n+]4ccc(CCc5ccncc5)cc4)cc3)c2)N1` (racemic) [EXAMPLE 3764] was 80 nM. Compound `CCCCC1(CCCC)CS(=O)(=O)c2ccc(N(C)C)cc2C(c2cccc(NC(=S)Nc3ccc(C[n+]4cccc(-c5ccccc5)c4)cc3)c2)N1` (stereo not drawn) [EXAMPLE 3724] showed an IC50 of 69 nM. The same measure, in the same setting: the result for `CCCCC1(CCCC)CS(=O)(=O)c2ccc(N(C)C)cc2C(c2cccc(NC(=S)Nc3ccc(C[n+]4cc(C)cc(C)c4)cc3)c2)N1` (stereo not drawn) [EXAMPLE 3729] reads 88 nM.

For the compound `CCCCC1(CCCC)CS(=O)(=O)c2ccc(N(C)C)cc2C(c2cccc(NC(=S)Nc3ccc(C[n+]4ccc(C(C)(C)C)cc4)c(C(F)(F)F)c3)c2)N1` (stereo not drawn) [EXAMPLE P372], the IC50 came out at 35 nM. For `CCCCC1(CCCC)CS(=O)(=O)c2ccc(N(C)C)cc2C(c2cccc(NC(=S)Nc3ccc(C[n+]4ccc(C(C)(C)C)cc4)cc3Cl)c2)N1` (stereo not drawn) [EXAMPLE P368], the IC50 came out at 29 nM. With `CCCCC1(CCCC)CS(=O)(=O)c2ccc(N(C)C)cc2C(c2cccc(NC(=S)Nc3ccc(C[n+]4cccc(Cc5ccccc5)c4)cc3)c2)N1` (stereo not drawn) [EXAMPLE 3725], the IC50 came to 52 nM. The same measure, in the same setting: the result for `CCCCC1(CCCC)CS(=O)(=O)c2ccc(N(C)C)cc2C(c2cccc(NC(=S)Nc3ccc(C[n+]4ccc(-c5ccccc5)cc4)cc3Br)c2)N1` (stereo not drawn) [EXAMPLE P382] reads 28 nM; that for `CCCCC1(CCCC)CS(=O)(=O)c2ccc(N(C)C)cc2C(c2cccc(NC(=S)Nc3ccc(C[n+]4c(C)cc(C)cc4C)cc3)c2)N1` (stereo not drawn) [EXAMPLE 5409], 42 nM.

Still in this test, the particulars now being: [3H]-taurocholate 8 μM, 37° C., 60 minutes.
Regarding `CCCCC1(CCCC)CS(=O)(=O)c2ccc(N(C)C)cc2C(c2cccc(NC(=S)Nc3ccc(C[n+]4ccccc4OCC)cc3)c2)N1` (racemic) [EXAMPLE 5415], the IC50 is 44 nM.

For the origin of these results see patent publication US20120015925A1, “NOVEL BENZOTHIAZEPINE AND BENZOTHIEPINE COMPOUNDS” (ASAHI KASEI PHARMA CORPORATION, priority 2004, published 2012).
